{"source": "BindingDB's records for patent US20240417410", "about": "(Hoffmann-La Roche, 2024)", "target": "Peptidyl-prolyl cis-trans isomerase A (Homo sapiens, UniProt P62937)", "sequence (P62937 whole entry)": "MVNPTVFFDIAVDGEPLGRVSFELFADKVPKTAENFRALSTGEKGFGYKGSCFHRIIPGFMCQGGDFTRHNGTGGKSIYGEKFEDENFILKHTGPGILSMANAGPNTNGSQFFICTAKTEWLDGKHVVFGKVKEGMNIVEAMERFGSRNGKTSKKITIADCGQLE", "assay": "CYPA Binding Analysis by Surface Plasmon Resonance (SPR) Assay", "protocol": "All SPR experiments were conducted on a Biacore 8K+ instrument (Cytiva). Recombinant biotinylated CYPA protein with a C-terminal AVI tag was purified and immobilized on flow cell 2 of SA chip (Cytiva, BR100531), with the flow cell 1 as the blank reference. The running buffer was HBS-P+ Buffer (Cytiva, BR100827, 0.01 M HEPES pH 7.4,0.15 M NaCl, 0.05% v/v Surfactant P20), and the flow rate was 10 μL/min. The immobilization level was achieved to about 1800 response units (RU). Compounds were 3-fold serially diluted to 1.5-3333 nM using HBS-P+Buffer with a final DMSO concentration of 1.5%, and then loaded to flow through the chip surface at a rate of 30 μL/min with HBS-P+Buffer containing 1.5% DMSO as the running buffer. Experiments were performed at 25° C. The contact time and dissociation time were set to 60 s and 200 s, respectively. After binding and dissociation of each sample, the chip was regenerated using 1 M NaCl with a short contact time of 19 s at a rate of 60 μL/min. The sensorgrams were analyzed using Biacore Insight Evaluation software with 1:1 kinetics binding model to determine the association rate constant (kon), dissociation rate constant (koff) and equilibrium dissociation constant (KD)."}
{"molecule": "CCn1c(-c2cc(N3CCN(C)CC3)cnc2[C@H](C)OC)c2c3cc(ccc31)-c1csc(n1)C[C@H](NC(=O)[C@H]1C[C@@H]1C)C(=O)N1CCC[C@H](N1)C(=O)OCC(C)(C)O2", "note": "[US20240417410, Example A122]", "values": [{"measurement": "Kd", "result": 30, "unit": "nM"}]}
